The target of assay [1] is T1, xanthine oxidase (XO) (Bos taurus, UniProt P80457).
T1 construct: gene XDH

The target in assay [2] is T1, xanthine oxidase (XO). The experiment in a line: SPR (Biacore T200, CM5 chip, immobilised XO, steady-state analysis); also lowers uric acid production by purified XO (UHPLC-MS). The format is binding. A general note: In SPR one partner is held on a chip, and binding of the other changes the refractive index at the surface.

For orientation: Kd means the free concentration of one partner at which half of the binding sites on the other are occupied at equilibrium, for simple one-to-one binding. A high value points to weaker binding.

T1 sequence (P80457 2-1332): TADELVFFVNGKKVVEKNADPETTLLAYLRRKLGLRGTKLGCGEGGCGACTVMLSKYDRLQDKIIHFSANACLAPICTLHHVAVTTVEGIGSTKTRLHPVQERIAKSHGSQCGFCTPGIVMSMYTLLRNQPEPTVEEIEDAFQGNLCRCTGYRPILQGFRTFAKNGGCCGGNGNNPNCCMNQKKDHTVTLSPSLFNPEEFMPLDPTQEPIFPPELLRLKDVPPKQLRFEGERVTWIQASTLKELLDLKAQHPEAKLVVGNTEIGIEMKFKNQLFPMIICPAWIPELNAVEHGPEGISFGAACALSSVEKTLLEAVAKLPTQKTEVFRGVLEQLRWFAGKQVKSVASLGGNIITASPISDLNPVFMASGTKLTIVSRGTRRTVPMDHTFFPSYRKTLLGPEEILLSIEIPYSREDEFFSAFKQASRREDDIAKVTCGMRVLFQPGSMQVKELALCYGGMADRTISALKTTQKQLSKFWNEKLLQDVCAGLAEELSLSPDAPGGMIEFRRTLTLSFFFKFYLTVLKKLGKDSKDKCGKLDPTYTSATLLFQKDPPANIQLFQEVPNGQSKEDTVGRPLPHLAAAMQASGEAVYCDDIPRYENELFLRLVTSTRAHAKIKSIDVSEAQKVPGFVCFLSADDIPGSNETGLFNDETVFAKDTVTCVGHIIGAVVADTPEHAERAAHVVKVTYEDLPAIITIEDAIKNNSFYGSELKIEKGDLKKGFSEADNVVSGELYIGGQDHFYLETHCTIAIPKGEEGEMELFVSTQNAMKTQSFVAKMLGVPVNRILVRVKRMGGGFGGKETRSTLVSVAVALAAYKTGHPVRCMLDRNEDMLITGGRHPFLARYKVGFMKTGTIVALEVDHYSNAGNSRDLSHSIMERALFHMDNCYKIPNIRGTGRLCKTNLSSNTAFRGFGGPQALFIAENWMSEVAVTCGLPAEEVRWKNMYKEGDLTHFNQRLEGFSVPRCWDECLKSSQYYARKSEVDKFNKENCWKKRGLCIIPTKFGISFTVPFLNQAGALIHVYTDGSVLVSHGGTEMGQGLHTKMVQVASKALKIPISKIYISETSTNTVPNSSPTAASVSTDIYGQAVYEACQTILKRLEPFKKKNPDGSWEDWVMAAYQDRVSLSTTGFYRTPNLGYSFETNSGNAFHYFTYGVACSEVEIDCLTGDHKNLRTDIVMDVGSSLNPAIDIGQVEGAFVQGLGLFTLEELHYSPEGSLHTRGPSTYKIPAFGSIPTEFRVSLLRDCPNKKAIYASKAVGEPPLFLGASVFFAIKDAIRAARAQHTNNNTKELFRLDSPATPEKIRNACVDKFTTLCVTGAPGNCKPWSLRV

As for `Oc1ncnc2[nH]ncc12` [AP, allopurinol], the “XO reaction-UHPLC/MS assay of uric acid production from xanthine, AP at 100 μM a” value at xanthine oxidase (XO) [1] is given as “We observed a significant reduction in uric acid levels in the AP treated group, a potent purine-like XOI”.

Compound `OC[C@H]1O[C@@H](Oc2cc3c(O)cc(O)cc3[o+]c2-c2cc(O)c(O)c(O)c2)[C@H](O)[C@@H](O)[C@@H]1O` [Dp-3G, delphinidin-3-glucoside] displayed a dissociation constant (Kd) on xanthine oxidase (XO) [2] of 250 nM.

Values taken from PMC12869243, “Urate-lowering effect of delphinidin-3-glucoside in red kidney beans via binding to the FAD site of the XO enzyme” (Journal of Advanced Research, 2025).
